According to US9232796B2, “Herbicidal compositions comprising 4-amino-3-chloro-5-fluoro-6-(4-chloro-2-fluoro-3-methoxyphenyl) pyridine-2-carboxylic acid or a derivative thereof and acetyl-CoA carboxylase (ACCase) inhibitors” (DOW AGROSCIENCES LLC, priority 2012, dated 2016):

Experiments:
SCPJU = assay: Example V (second) postemergence foliar-applied ternary mixtures, greenhouse, direct seeded rice weeds; type: in vivo, Schoenoplectus juncoides (Roxb.) Palla
Excerpt: Seeds or nutlets of the desired test plant species were planted in a soil matrix prepared by mixing a sandy loam or loam soil (e.g., 32 percent silt, 23 percent clay, and 45 percent sand, with a pH of about 6.5 and an organic matter content of about 1.9 percent) and calcareous grit in an 80 to 20 ratio. The soil matrix was contained in plastic pots with a volume of 1 quart and a surface area of 83.6 square centimeters (cm^2). When required to ensure good germination and healthy plants, a fungicide treatment and/or other chemical or physical treatment was applied. The plants were grown for 8-22 days in a greenhouse with an approximate 14 hr. photoperiod which was maintained at about 29° C. during the day and 26° C. during the night. Nutrients (Peters Excel® 15-5-15 5-Ca 2-Mg and iron chelate) were applied in the irrigation solution as needed and water was added on a regular basis. Supplemental lighting was provided with overhead metal halide 1000-Watt lamps as necessary. The plants were employed for testing when they reached the first through fourth true leaf stage.
Treatments consisted of the benzyl ester of 4-amino-3-chloro-5-fluoro-6-(4-chloro-2-fluoro-3-methoxy-phenyl)pyridine-2-carboxylic acid (Compound A), formulated as an SC (suspension concentrate), an ACCase inhibitor, and a third herbicidal component, each applied alone and in ternary combination. Forms of compound A were applied on an acid equivalent basis.
The ACCase inhibitor component was applied on an active ingredient basis and included cyhalofop-R-butyl formulated as Clincher® SF, fenoxaprop-p-ethyl formulated as RiceStar® HT, and profoxydim formulated as Aura® 20EC. Other herbicidal components were applied on an active ingredient or acid equivalent basis depending on the compound and included penoxsulam formulated as Grasp® SC, bentazon sodium formulated as Basagran®, triclopyr […] (TEA) salt formulated as Grandstand® R, bispyribac sodium formulated as Regiment® 80WP, imazamox ammonium formulated as Beyond®, benzobicyclon, quinclorac formulated as Facet® 75DF, glyphosate dimethylammonium (DMA) salt formulated as Durango® DMA, glufosinate ammonium formulated as Ignite® 280, fentrazamide formulated as an emulsifiable concentrate (EC), propyrisulfuron formulated as Zeta One®, and indanofan (technical grade material).
Treatment requirements were calculated based upon the rates being tested, the concentration of active ingredient or acid equivalent in the formulation, and a 12 mL application volume at a rate of 187 L/ha.
For treatments comprised of formulated compounds, measured amounts of compounds were placed individually in 25 mL glass vials and diluted in a volume of 1.25% (v/v) Agri-Dex® crop oil concentrate to obtain 12× stock solutions. […]

CYPES = assay: as above; type: in vivo, Cyperus esculentus L.
Experimental: (§1) The treated plants and control plants were placed in a greenhouse as described above and watered by sub-irrigation to prevent wash-off of the test compounds. After approximately 3 weeks, the condition of the test plants as compared with that of the untreated plants was determined visually and scored on a scale of 0 to 100 percent where 0 corresponds to no injury or growth inhibition and 100 corresponds to complete kill.
Colby's equation was used to determine the herbicidal effects expected from the mixtures (Colby, S. R. 1967. Calculation of the synergistic and antagonistic response of herbicide combinations. Weeds 15:20-22.).
The following equation was used to calculate the expected activity of mixtures containing three active ingredients, A, B, and C: Expected=A+B+C−((A×B+A×C+B×C)/100)+(A×B×C/10000)

AVEFA = assay: Example IV postemergence foliar-applied, greenhouse, cereal crops weeds; type: in vivo, Avena fatua L.
Experimental: Seeds of the desired test plant species were planted in Sun Gro MetroMix® 306 planting mixture, which typically has a pH of 6.0 to 6.8 and an organic matter content of about 30 percent, in plastic pots with a surface area of 103.2 square centimeters (cm^2). When required to ensure good germination and healthy plants, a fungicide treatment and/or other chemical or physical treatment was applied. The plants were grown for 7-36 days in a greenhouse with an approximate 14 hour photoperiod which was maintained at about 18° C. during the day and about 17° C. during the night. Nutrients and water were added on a regular basis and supplemental lighting was provided with overhead metal halide 1000-Watt lamps as necessary. The plants were employed for testing when they reached the second or third true leaf stage.
Treatments consisted of the benzyl ester of 4-amino-3-chloro-5-fluoro-6-(4-chloro-2-fluoro-3-methoxy-phenyl)pyridine-2-carboxylic acid (Compound A), formulated as an SC, a second cereal herbicide alone and then both in combination.
Other herbicidal components were applied on an active ingredient basis and included acetyl-CoA carboxylase (ACCase)-inhibiting herbicides clodinafop-propargyl, fenoxaprop-P-ethyl, pinoxaden and tralkoxydim.
Measured aliquots of benzyl ester of 4-amino-3-chloro-5-fluoro-6-(4-chloro-2-fluoro-3-methoxy-phenyl)pyridine-2-carboxylic acid (Compound A) were placed in 25 milliliter (mL) glass vials and diluted in a volume of 1.25% (v/v) Agri-Dex® crop oil concentrate to obtain stock solutions. Compound requirements are based upon a 12 mL application volume at a rate of 187 liters per hectare (L/ha). Spray solutions of the second cereal herbicide and experimental compound mixtures were prepared by adding the stock solutions to the appropriate amount of dilution solution to form 12 mL spray solution with active ingredients in two- and three-way combinations. Formulated compounds were applied to the plant material with an overhead Mandel track sprayer equipped with an 8002E nozzle calibrated to deliver 187 L/ha over an application area of 0.503 square meters (m^2) at a spray height of 18 inches (46 cm) above average plant canopy. Control plants were sprayed in the same manner with the solvent blank.
as §1, with “20-22 days,” for “approximately 3 weeks,”, “control” for “untreated”, “injury” for “injury or growth inhibition”, “kill. […]” for “kill.”

For `CCCCOC(=O)[C@@H](C)Oc1ccc(Oc2ccc(C#N)cc2F)cc1` [Cyhalofop-butyl, butyl(2R)-2-[4-(4-cyano-2-fluorophenoxy)phenoxy]propanoate, reference compound], the “Visual Weed Control (%) - 21 DAA SCPJU Obs” value (SCPJU; 35 gai/ha) was 0% and the “Visual Weed Control (%) - 21 DAA CYPES Obs” value (CYPES; 35 gai/ha) was 0%.

With `COc1c(Cl)ccc(-c2nc(C(=O)OCc3ccccc3)c(Cl)c(N)c2F)c1F` [Compound A Benzyl Ester, benzyl ester of 4-amino-3-chloro-5-fluoro-6-(4-chloro-2-fluoro-3-methoxy-phenyl)pyridine-2-carboxylic acid] the “Visual Weed Control (%) - 21 DAA SCPJU Obs” value (SCPJU; 2.19 gae/ha) was 65%, the “Visual Weed Control (%) - 21 DAA SCPJU Obs” value (SCPJU; 4.38 gae/ha) was 96% and the “Visual Weed Control (%) - 21 DAA CYPES Obs” value (CYPES; 8 ae/ha) was 70%. The “Visual Weed Control (%) - 21 DAA CYPES Obs” value (CYPES; 8 gae/ha) was 70%, the “Visual Weed Control (%) - 21 DAA AVEFA Obs” value (AVEFA; Compound A Benzyl Ester 5 gai/ha) was 0% and the “Visual Weed Control (%) - 21 DAA AVEFA Obs” value (AVEFA; Compound A Benzyl Ester 10 gai/ha) was 0%.
